In the NIST ThermoML archive (doi:10.1021/je400149j):

Test: relative permittivity at zero frequency (dimensionless); xn = mol fraction of the nth substance listed
Conditions: 101 kPa, Liquid, impedance/gain phase analyzer

C[S+](C)[O-] [dimethyl sulfoxide] + O
relative permittivity at zero frequency
Conditions | x1 = 0.1536 | x1 = 0.2496 | x1 = 0.3505 | x1 = 0.4975 | x1 = 0.5991 | x1 = 0.7039 | x1 = 0.7882 | x1 = 0.8297 | x1 = 0.9159 | x1 = 1
253.15 K | 91.94 | 88.58 | 84.04 | 76.79 | – | – | – | – | – | –
255.15 K | 91.25 | 87.74 | 83.36 | 76.23 | – | – | – | – | – | –
257.15 K | 90.45 | 86.97 | 82.67 | 75.63 | – | – | – | – | – | –
259.15 K | 89.61 | 86.2 | 82.03 | 75.1 | – | – | – | – | – | –
261.15 K | 88.8 | 85.42 | 81.31 | 74.51 | 69.37 | – | – | – | – | –
263.15 K | 87.94 | 84.64 | 80.65 | 73.97 | 68.84 | – | – | – | – | –
265.15 K | 87.11 | 83.94 | 79.97 | 73.39 | 68.38 | – | – | – | – | –
267.15 K | 86.34 | 83.09 | 79.33 | 72.86 | 67.89 | – | – | – | – | –
269.15 K | 85.49 | 82.43 | 78.71 | 72.29 | 67.37 | – | – | – | – | –
271.15 K | 84.69 | 81.68 | 78.01 | 71.63 | 66.92 | – | – | – | – | –
273.15 K | 83.99 | 80.92 | 77.39 | 71.06 | 66.4 | 60.97 | – | – | – | –
275.15 K | 83.16 | 80.24 | 76.74 | 70.47 | 65.94 | 60.58 | – | – | – | –
277.15 K | 82.38 | 79.52 | 75.92 | 69.92 | 65.48 | 60.19 | – | – | – | –
279.15 K | 81.7 | 78.75 | 75.25 | 69.35 | 65 | 59.84 | 56.06 | – | – | –
281.15 K | 80.98 | 78.14 | 74.63 | 68.84 | 64.52 | 59.46 | 55.83 | – | – | –
283.15 K | 80.31 | 77.42 | 74.04 | 68.36 | 64.1 | 59.05 | 55.54 | 53.95 | – | –
285.15 K | 79.54 | 76.72 | 73.46 | 67.82 | 63.61 | 58.67 | 55.2 | 53.67 | – | –
287.15 K | 78.93 | 76.14 | 72.79 | 67.3 | 63.09 | 58.31 | 54.84 | 53.38 | 50.53 | –
289.15 K | 78.19 | 75.4 | 72.06 | 66.67 | 62.58 | 57.91 | 54.52 | 53.01 | 50.3 | –
291.15 K | 77.43 | 74.76 | 71.47 | 66.13 | 62.13 | 57.57 | 54.21 | 52.68 | 50.06 | 47.15
293.15 K | 76.72 | 74.13 | 70.84 | 65.63 | 61.65 | 57.17 | 53.82 | 52.36 | 49.79 | 47.09
295.15 K | 75.97 | 73.52 | 70.29 | 65.13 | 61.23 | 56.81 | 53.45 | 52.06 | 49.53 | 46.84
297.15 K | 75.33 | 72.88 | 69.71 | 64.67 | 60.76 | 56.37 | 53.1 | 51.72 | 49.27 | 46.64
299.15 K | 74.63 | 72.11 | 69 | 64.12 | 60.32 | 55.99 | 52.77 | 51.42 | 49 | 46.39
301.15 K | 74.02 | 71.48 | 68.41 | 63.63 | 59.83 | 55.59 | 52.41 | 51 | 48.75 | 46.18
303.15 K | 73.34 | 70.83 | 67.88 | 63.07 | 59.38 | 55.21 | 52.03 | 50.7 | 48.48 | 45.94
305.15 K | 72.66 | 70.21 | 67.29 | 62.57 | 58.95 | 54.82 | 51.63 | 50.38 | 48.21 | 45.63
307.15 K | 72.02 | 69.63 | 66.63 | 62.12 | 58.51 | 54.47 | 51.27 | 50.04 | 47.94 | 45.39
309.15 K | 71.28 | 69.05 | 66.07 | 61.59 | 58.1 | 54.05 | 50.9 | 49.68 | 47.64 | 45.14
311.15 K | 70.73 | 68.39 | 65.52 | 61.06 | 57.64 | 53.66 | 50.51 | 49.39 | 47.35 | 44.88
313.15 K | 70.05 | 67.84 | 64.91 | 60.58 | 57.16 | 53.28 | 50.11 | 49.02 | 47.09 | 44.64
315.15 K | 69.51 | 67.3 | 64.33 | 60.13 | 56.72 | 52.92 | 49.73 | 48.67 | 46.85 | 44.34
317.15 K | 68.91 | 66.79 | 63.77 | 59.56 | 56.28 | 52.56 | 49.39 | 48.36 | 46.53 | 44.11
319.15 K | 68.26 | 66.18 | 63.12 | 59.12 | 55.79 | 52.15 | 49.09 | 48 | 46.26 | 43.87
321.15 K | 67.66 | 65.6 | 62.59 | 58.67 | 55.33 | 51.79 | 48.75 | 47.69 | 45.99 | 43.58
323.15 K | 67.01 | 65.07 | 62.03 | 58.11 | 54.85 | 51.43 | 48.37 | 47.33 | 45.72 | 43.31
325.15 K | 66.49 | 64.43 | 61.49 | 57.67 | 54.36 | 51.04 | 48.03 | 47 | 45.4 | 43.07
327.15 K | 65.83 | 63.89 | 60.98 | 57.18 | 54 | 50.64 | 47.64 | 46.66 | 45.12 | 42.78
329.15 K | 65.27 | 63.35 | 60.4 | 56.69 | 53.52 | 50.25 | 47.27 | 46.35 | 44.82 | 42.56
331.15 K | 64.72 | 62.78 | 59.87 | 56.23 | 53.03 | 49.87 | 46.94 | 45.99 | 44.53 | 42.27
333.15 K | 64.08 | 62.18 | 59.28 | 55.72 | 52.61 | 49.49 | 46.57 | 45.67 | 44.23 | 42
